Experimental findings from US20180371272A1, “AQUEOUS INK, INK CARTRIDGE AND IMAGE RECORDING METHOD” (CANON KABUSHIKI KAISHA, priority 2017, published 2018) are described below.

Structures are written as SMILES. Read-outs that look alike come from different tables or passages of the source.

Format in all cases: physicochemical
A short description of data set [1]: Water solubility of solvent A at 20° C. The following applies: for Water solubility (% by mass): 20° C. On the procedure:
When a compound is a salt in the present invention, the salt exists while dissociating into ions in an ink, but this is expressed as “containing a salt” for convenience. An aqueous inkjet ink may be described as just an “ink.” The physical property values are values at 20° C. unless otherwise specified.
This solvent A is a so-called poorly water-soluble compound (poorly water-soluble solvent), which is poorly dissolved in water. […] When water in the ink evaporates and the concentration increases, the solvent A cannot be completely dissolved in the ink to separate from the ink. Because the tips of non-printing nozzles are exposed to the atmosphere, water in the ink volatilizes particularly easily.

Data set [2] in a line: Surface tension of solvent A at 20° C. On the procedure:
(§1) The present invention will be described in detail hereinafter by mentioning preferable embodiments. When a compound is a salt in the present invention, the salt exists while dissociating into ions in an ink, but this is expressed as “containing a salt” for convenience. An aqueous inkjet ink may be described as just an “ink.” The physical property values are values at 20° C. unless otherwise specified.
(§2) The vapor pressure of the solvent A at 20° C. is 0.5 mmHg or less, and the surface tension at 20° C. is 30 mN/m or more. When the vapor pressure is more than 0.5 mmHg, oil films formed on ejection ports evaporate, and the effect of suppressing water evaporation becomes weak. When the surface tension is less than 30 mN/m, the intermolecular force is weak. Therefore, oil films cannot be formed. The vapor pressure of the solvent A at 20° C. can be 0.2 mmHg or less. The surface tension of the solvent A at 20° C. can be 36 mN/m or more. Specific examples of the solvent A are illustrated in Table 1.

The nature of data set [3]: Vapor pressure of solvent A at 20° C. As to the method:
as §1, §2

The nature of data set [4]: Log partition coefficient of solvent A.

As to `CC(O)COc1ccccc1` (stereo not shown) [1-Phenoxy-2-propanol], in data set [1], the “Water solubility (% by mass)” value came out at 1.1 % by mass. Also, in data set [2], the “Surface tension (mN/m)” value turned out to be 37.7 mN/m. In data set [3], the “Vapor pressure (mmHg)” value stood at 0 mmHg. Moreover, the Log partition coefficient in data set [4] is 1.51.
Regarding `CC(O)Cc1ccccc1` (stereo not shown) [1-Phenyl-2-propanol], the “Water solubility (% by mass)” value in data set [1] is listed as 0.58 % by mass. Besides, the “Surface tension (mN/m)” value in data set [2] came out at 37.3 mN/m. Moreover, in data set [3] (20° C.), the “Vapor pressure (mmHg)” value is recorded as 0.1 mmHg. Besides, the Log partition coefficient in data set [4] was determined as 1.71.
Take `OCCOc1ccccc1` [2-Phenoxyethanol]: the “Water solubility (% by mass)” value in data set [1] came out at 2.67 % by mass. The “water solubility of the solvent A in the prepared ink” value in data set [1] (solvent A of ink 1) is listed as 2.7%. Besides, in data set [2], the “Surface tension (mN/m)” value came to 40 mN/m. Besides, the “Vapor pressure (mmHg)” value in data set [3] amounted to 0 mmHg. This molecule also registered a Log partition coefficient in data set [4] of 1.16.
Take `OCCCc1ccccc1` [3-Phenyl-1-propanol]: in data set [1], the “Water solubility (% by mass)” value worked out at 0.568 % by mass. In addition, the “Surface tension (mN/m)” value in data set [2] worked out at 38.9 mN/m. Besides, the “Vapor pressure (mmHg)” value in data set [3] amounted to 0 mmHg. Also, the Log partition coefficient in data set [4] is 1.88.
On to `OCCCCc1ccccc1` [4-Phenyl-1-butanol], for which the “Water solubility (% by mass)” value in data set [1] is 0.1 % by mass. Moreover, the “Surface tension (mN/m)” value in data set [2] is recorded as 38.3 mN/m. Also, in data set [3], the “Vapor pressure (mmHg)” value was 0 mmHg. In data set [4], this molecule displayed a Log partition coefficient of 2.4.
For `OCc1ccccc1` [Benzyl alcohol], the “Water solubility (% by mass)” value in data set [1] amounted to 4.29 % by mass. Further, in data set [2], the “Surface tension (mN/m)” value is on record as 39 mN/m. The “Vapor pressure (mmHg)” value in data set [3] amounted to 0.1 mmHg. This molecule yielded a Log partition coefficient in data set [4] of 1.03.
As for `OCCc1ccccc1` [Phenethyl alcohol], the “Water solubility (% by mass)” value in data set [1] was found to be 2.2 % by mass. The “Surface tension (mN/m)” value in data set [2] was 39.7 mN/m. In addition, the “Vapor pressure (mmHg)” value in data set [3] amounted to 0.1 mmHg.
